In patent publication US20230075765A1, “PYRROLO[2,3-D]PYRIMIDINE DERIVATIVE TARGETING EGFR MUTATION, AS WELL AS THE PREPARATIVE METHOD AND THE USE THEREOF” (WEST CHINA HOSPITAL, SICHUAN UNIVERSITY, priority 2020, published 2023):
Like-named read-outs stand apart in the source and are kept apart here.

What was measured:
[1] = test system: A549 cells; assay: Inhibition of cell proliferation, CCK8 method; assay type: cell-based, human; details: A549 lung adenocarcinoma cells, 48 h, read-out: Inhibitory activity (IC50) against A549
Description: (§1) Compounds 1-9 of the present invention were respectively weighed and dissolved in 1 ml of dimethyl sulfoxide (DMSO), to prepare a 10 mM drug solution, which was stored in a refrigerator at −20° C. in the dark after packaging. The stock solution was diluted with the corresponding culture medium to the required concentration just before the experiment.
(§2) HBE cells and BEAS-2B cells are normal lung bronchial epithelial cell lines, and both cells were cultured in DMEM high glucose medium (supplemented with 10% fetal bovine serum and 1% double antibody) to the logarithmic growth phase; H460 cells, A549 cells, H1975 cells and HCC827 cells are lung cancer cell lines, and all of them were cultured in RPMI1640 medium (supplemented with 10% fetal bovine serum and 1% double antibody) to the logarithmic growth phase. Among them, H1975 cells and HCC827 cells are EGFR mutant cells.
(§3) When the cells were cultured to 90% of the growth density, the cells were digested with 0.25% trypsin to prepare a single cell suspension. The cells were counted, and then seeded in a 96-well plate at a density of 5000 cells/well, 100 μl for each well. The culture plate was moved into a CO2 incubator and incubated for 24 h at 37° C. and 5% CO2. Compounds at different concentrations were added to each well, 5 replicate wells for each concentration, and the cells were treated with the compounds for 48 hours. CCK8 detection reagent was added to each well according to the operation manual, and then the plate was further incubated for 1 h before terminating the culture. 450 nm wavelength was chosen, and the absorbance value of each well was adjusted on the microplate ELISA analyzer. The result was recorded. […] was taken as the horizontal axis, and absorbance as the vertical axis to plot a curve. The half inhibitory concentration (IC50) was calculated by Bliss method. Each experiment was repeated at least 3 times.
(§4) Normal lung cell lines and different lung cancer cell lines were selected for experiments. Amongst, the compound with high anti-cancer activity was screened, whose anti-tumor activity was further studied.

[2] = test system: BEAS-2B cells; assay: Inhibition of cell proliferation, CCK8 method; assay type: cell-based, human; details: BEAS-2B normal bronchial epithelial cells, 48 h, read-out: Inhibitory activity (IC50) against BEAS-2B
Description: as §1, §2, §3, §4

[3] = test system: H460 cells; assay: Inhibition of cell proliferation, CCK8 method; assay type: cell-based, human; details: 48 h, read-out: Inhibitory activity (IC50) against H460
Description: as §1, §2, §3, §4

[4] = molecular target: T1, EGFR (T790M L858R) (Homo sapiens, UniProt P00533, L858R/T790M); assay: Kinase inhibition, mobility shift assay; assay type: biochemical; details: for Single-concentration inhibitory activity against EGFR T790M L858R, Mean (100% inhibition): compound concentration 2 nM; for IC50: EGFR L858R/T790M double mutation, read-out: Inhibitory activity (IC50) on EGFR (T790M L858R); for inhibitory activity against EGFR L858R/T790M higher than against wild-type EGFR: ratio of IC50 values wild-type EGFR / EGFR L858R/T790M
T1 construct: purchased Invitrogen PR8911A
Description: According to relevant literature, the inhibitory activity of five kinases (EGFR, EGFR-LT, EGFR-LTC, BTK, JAK3) were tested. Note: EGFR, EGFR-LT, EGFR-LTC: wild-type EGFR, L858R/T790M (EGFR-LT), or L858R/T790M/C797S (EGFR-LTC) mutant protein.
95 μl of 100% DMSO was added to the first well of a 96-well plate, and then 5 μl of 10 mM compound solution was added to prepare a 500 μM compound solution.
10 μl solution was taken out from the 50-fold concentration of compound solution (prepared and tested), and transferred to a 96-well plate, to which was added 90 μl kinase buffer to prepare a 5-fold concentration of compound solution.
5 μl solution was taken out from the 5-fold concentration of compound solution in a 96-well plate, and transferred to a 384-well reaction plate. For example, the solution was transferred from well A1 of a 96-well plate to wells A1 and A2 of a 384-well plate, from well A2 of a 96-well plate to wells A3 and A4 of a 384-well plate, and so on.
1) The kinase was added to 1× kinase buffer to form 2.5× kinase solution;
2) 10 μl of the above 2.5× kinase solution was transferred to a 384-well reaction plate, and 1× kinase buffer was added to the negative control well, then incubated for 10 min at room temperature;
3) FAM-labeled polypeptide and ATP were added to 1× kinase buffer to form a 2.5×substrate solution;
5) The 384-well reaction plate was incubated at 28° C. for 60 min, to which was added 30 μl of stop solution to stop the reaction, and the model of biochemical incubator was SPX-100B-Z.
The conversion rate was read on CaliperEZ Reader.
1) The conversion rate data were copied from CaliperEZ Reader II;
2) The conversion rate was converted into the inhibition rate;
Percent inhibition=(max−conversion)/(max−min)*100
“min” is the reading of the control well without enzyme; “max” is the reading of DMSO control well.
3) IC50 values were fitted by using XLFit excel add-in version 5.4.0.8.
(§5) Fitting formula: Y=Bottom+(Top−Bottom)/(1+(IC50/X)^HillSlope)

[5] = molecular target: T2, EGFR (T790M, C797S, L858R) (Homo sapiens, UniProt P00533, C797S/L858R/T790M); assay: Kinase inhibition, Lantha Screen assay; assay type: biochemical; details: for Single-concentration inhibitory activity against EGFR (T790M, C7975, L858R), Mean (100% inhibition): compound concentration 2 nM; for IC50: read-out: Inhibitory activity (IC50) on EGFR (T790M, C797S, L858R)
T2 construct: purchased BPS 40351
Description: According to relevant literature, the inhibitory activity of five kinases (EGFR, EGFR-LT, EGFR-LTC, BTK, JAK3) were tested. Note: EGFR, EGFR-LT, EGFR-LTC: wild-type EGFR, L858R/T790M (EGFR-LT), or L858R/T790M/C797S (EGFR-LTC) mutant protein. […]
1) The initial detection concentration of the compound is 10 μM, and the compound was prepared into a 100-fold concentration, namely 1000 μM. 95 μl of 100% DMSO was added to the first well of a 96-well plate, and then 10 μl of 10 mM compound solution was added to prepare a 1000 μM compound solution. 50 μl of […] compound solution prepared above was transferred to a 384-well Echo plate;
2) 50 μl of 100% DMSO was transferred to two empty wells as a control without compound and enzyme;
3) Echo 550 was used to transfer 100 nl of compound solution to a 384-well test plate. 2.3 Kinase reaction and termination
1) EGFR (T790M, C797S, L858R) was added to 1× kinase buffer to form 2× kinase solution;
2) 5 μl of the above 2× kinase solution was transferred to a 384-well reaction plate, and 1× kinase buffer was added to the negative control well, then incubated for 10 min at room temperature;
3) Fluorescein-PolyGT and ATP were added to 1× kinase buffer to form a 2× substrate solution;
4) 5 μl of the above 2× substrate solution was transferred to a 384-well reaction plate;
5) The 384-well reaction plate was incubated at room temperature for 30 min;
6) 2× mixed solution of antibody and EDTA was prepared, of which […] was added to the 384-well reaction plate to stop the reaction;
7) The plate was left at room temperature for 60 min.
Percent inhibition=(max−Lantha signal)/(max−min)*100
“min” is the reading of the control well without enzyme; “max” is the reading of DMSO control well. 3) The data were imported into MS Excel, and IC50 results were subjected to curve fitting by using XLFit excel add-in version 5.4.0.8:
as §5

[6] = Homo sapiens, NCI-H460, H460 large cell lung cancer cells

T1 sequence (P00533 25-1210 T790M/L858R): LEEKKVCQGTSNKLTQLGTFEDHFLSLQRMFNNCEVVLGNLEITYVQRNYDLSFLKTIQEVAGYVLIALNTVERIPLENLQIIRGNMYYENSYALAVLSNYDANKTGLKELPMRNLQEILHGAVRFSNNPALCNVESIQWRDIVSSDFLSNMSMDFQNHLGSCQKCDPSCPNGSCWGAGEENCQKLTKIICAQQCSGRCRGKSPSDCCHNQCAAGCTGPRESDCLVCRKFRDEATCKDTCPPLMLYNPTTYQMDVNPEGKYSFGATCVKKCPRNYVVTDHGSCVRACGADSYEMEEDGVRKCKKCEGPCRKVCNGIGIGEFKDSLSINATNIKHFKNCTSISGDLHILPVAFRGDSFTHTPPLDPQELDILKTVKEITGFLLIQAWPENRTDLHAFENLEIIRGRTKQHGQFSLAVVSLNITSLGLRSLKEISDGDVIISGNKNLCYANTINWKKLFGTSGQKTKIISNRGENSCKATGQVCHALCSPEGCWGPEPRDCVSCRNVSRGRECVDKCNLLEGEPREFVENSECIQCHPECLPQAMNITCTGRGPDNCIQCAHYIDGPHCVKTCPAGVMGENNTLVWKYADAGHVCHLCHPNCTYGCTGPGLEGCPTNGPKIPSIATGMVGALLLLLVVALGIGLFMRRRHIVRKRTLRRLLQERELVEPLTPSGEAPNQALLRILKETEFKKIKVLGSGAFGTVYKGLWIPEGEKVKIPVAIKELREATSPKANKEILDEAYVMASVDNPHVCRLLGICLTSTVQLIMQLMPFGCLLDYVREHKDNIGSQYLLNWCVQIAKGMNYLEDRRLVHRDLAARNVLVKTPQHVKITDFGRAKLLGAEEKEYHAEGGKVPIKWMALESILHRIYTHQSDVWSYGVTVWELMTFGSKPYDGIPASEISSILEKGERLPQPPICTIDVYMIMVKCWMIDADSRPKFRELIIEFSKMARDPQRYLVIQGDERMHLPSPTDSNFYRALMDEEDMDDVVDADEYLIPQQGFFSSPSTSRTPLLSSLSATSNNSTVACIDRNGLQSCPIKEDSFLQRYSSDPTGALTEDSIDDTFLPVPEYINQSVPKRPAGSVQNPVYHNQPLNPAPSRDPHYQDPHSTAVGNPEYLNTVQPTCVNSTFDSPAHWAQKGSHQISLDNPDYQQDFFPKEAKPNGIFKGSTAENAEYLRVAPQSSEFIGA
T2 sequence (P00533 25-1210 T790M/C797S/L858R): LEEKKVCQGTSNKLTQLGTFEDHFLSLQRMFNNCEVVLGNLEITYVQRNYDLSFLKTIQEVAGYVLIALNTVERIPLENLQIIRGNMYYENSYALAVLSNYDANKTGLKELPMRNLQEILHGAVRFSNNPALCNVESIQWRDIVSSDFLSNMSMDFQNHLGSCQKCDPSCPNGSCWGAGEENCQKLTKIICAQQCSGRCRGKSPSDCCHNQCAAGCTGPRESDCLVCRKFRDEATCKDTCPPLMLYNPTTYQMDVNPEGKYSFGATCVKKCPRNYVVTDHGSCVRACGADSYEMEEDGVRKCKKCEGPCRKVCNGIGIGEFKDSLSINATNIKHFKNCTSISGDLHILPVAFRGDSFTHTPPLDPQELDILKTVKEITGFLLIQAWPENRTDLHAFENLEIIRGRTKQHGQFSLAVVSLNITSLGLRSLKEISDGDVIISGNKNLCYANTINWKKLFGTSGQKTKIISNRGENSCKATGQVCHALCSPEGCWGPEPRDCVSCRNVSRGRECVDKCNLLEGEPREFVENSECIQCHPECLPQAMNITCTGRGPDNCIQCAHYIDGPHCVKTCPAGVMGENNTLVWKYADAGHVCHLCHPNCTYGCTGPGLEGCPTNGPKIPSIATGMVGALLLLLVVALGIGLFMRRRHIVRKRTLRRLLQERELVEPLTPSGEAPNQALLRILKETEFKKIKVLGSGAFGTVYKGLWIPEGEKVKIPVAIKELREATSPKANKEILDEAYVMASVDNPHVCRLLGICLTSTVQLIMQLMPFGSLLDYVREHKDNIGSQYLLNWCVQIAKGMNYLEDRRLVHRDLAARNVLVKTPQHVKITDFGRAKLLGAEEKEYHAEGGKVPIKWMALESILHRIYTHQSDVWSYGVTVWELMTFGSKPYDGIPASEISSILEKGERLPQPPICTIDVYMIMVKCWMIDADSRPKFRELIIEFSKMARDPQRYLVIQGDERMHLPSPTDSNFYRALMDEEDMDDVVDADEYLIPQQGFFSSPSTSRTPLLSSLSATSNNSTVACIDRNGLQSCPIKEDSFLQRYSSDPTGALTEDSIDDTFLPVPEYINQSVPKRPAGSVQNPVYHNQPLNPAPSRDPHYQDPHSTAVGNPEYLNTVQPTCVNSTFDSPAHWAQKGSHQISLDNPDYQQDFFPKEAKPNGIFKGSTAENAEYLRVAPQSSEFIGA

C=CC(=O)Nc1cccc(Oc2nc(Nc3ccc(N4CCN(C)CC4)c(N)c3)nc3c2ccn3COC(=O)C(C)(C)C)c1 [Compound 8]
IC50 ([1]; Homo sapiens): 10.8 µM | IC50 ([2]; Homo sapiens): 9.54 µM | IC50 [3, 6]: 7.65 µM | Single-concentration inhibitory activity against EGFR T790M L858R, Mean (100% inhibition) [4]: 2.4 % inhibition | Single-concentration inhibitory activity against EGFR (T790M, C7975, L858R), Mean (100% inhibition) [5]: 3.6 % inhibition

C=CC(=O)Nc1cccc(Oc2nc(Nc3ccc(N4CCN(C)CC4)c(Cl)c3)nc3[nH]ccc23)c1 [Compound 2]
IC50 [1]: 1.68 µM | IC50 [2]: 3.8 µM | IC50 ([3]; H460 large cell lung cancer cells): 4.86 µM | Single-concentration inhibitory activity against EGFR T790M L858R, Mean (100% inhibition) [4]: 92 % inhibition | Single-concentration inhibitory activity against EGFR (T790M, C7975, L858R), Mean (100% inhibition) [5]: 9.2 % inhibition

C=CC(=O)Nc1cccc(Oc2nc(Nc3ccc(N4CCN(C)CC4)c([N+](=O)[O-])c3)nc3c2ccn3COC(=O)C(C)(C)C)c1 [Compound 7]
IC50 ([1]; Homo sapiens): 3.1 µM | IC50 ([2]; Homo sapiens): 5.73 µM | IC50 [3, 6]: 4.68 µM | Single-concentration inhibitory activity against EGFR T790M L858R, Mean (100% inhibition) [4]: 3.5 % inhibition | Single-concentration inhibitory activity against EGFR (T790M, C7975, L858R), Mean (100% inhibition) [5]: 8.4 % inhibition

C=CC(=O)Nc1cccc(Oc2nc(Nc3ccc(N4CCN(C)CC4)c(OC)c3)nc3[nH]ccc23)c1 [Compound 4]
IC50 ([1]; Homo sapiens): 20.6 µM | IC50 ([2]; Homo sapiens): 9.89 µM | IC50 [3, 6]: 33.6 µM | IC50 [4]: 0.0031 µM | Single-concentration inhibitory activity against EGFR T790M L858R, Mean (100% inhibition) [4]: 42 % inhibition | inhibitory activity against EGFR L858R/T790M higher than against wild-type EGFR [4]: 70 fold | Single-concentration inhibitory activity against EGFR (T790M, C7975, L858R), Mean (100% inhibition) [5]: 7.8 % inhibition | IC50 [5]: 1.41 µM

C=CC(=O)Nc1cccc(Oc2nc(Nc3ccc(N4CCN(C)CC4)c(I)c3)nc3c2ccn3COC(=O)C(C)(C)C)c1 [Compound 9]
IC50 ([1]; Homo sapiens): 9.63 µM | IC50 ([2]; Homo sapiens): 29.1 µM | IC50 [3, 6]: 25.1 µM | Single-concentration inhibitory activity against EGFR T790M L858R, Mean (100% inhibition) [4]: 0.1 % inhibition | Single-concentration inhibitory activity against EGFR (T790M, C7975, L858R), Mean (100% inhibition) [5]: 2.1 % inhibition

C=CC(=O)Nc1cccc(Oc2nc(Nc3ccc(N4CCN(C)CC4)c([N+](=O)[O-])c3)nc3[nH]ccc23)c1 [Compound 5]
IC50 ([1]; Homo sapiens): 2.9 µM | IC50 ([2]; Homo sapiens): 3.68 µM | IC50 [3, 6]: 8.02 µM | IC50 [4]: 0.0027 µM | Single-concentration inhibitory activity against EGFR T790M L858R, Mean (100% inhibition) [4]: 49 % inhibition | inhibitory activity against EGFR L858R/T790M higher than against wild-type EGFR [4]: 54 fold | Single-concentration inhibitory activity against EGFR (T790M, C7975, L858R), Mean (100% inhibition) [5]: 5.8 % inhibition | IC50 [5]: 2.22 µM

C=CC(=O)Nc1cccc(Oc2nc(Nc3ccc(N4CCN(C)CC4)c(N)c3)nc3[nH]ccc23)c1 [Compound 6]
IC50 ([1]; Homo sapiens): 6.06 µM | IC50 ([2]; Homo sapiens): 7.8 µM | IC50 [3, 6]: 26.7 µM | IC50 [4]: 0.0034 µM | Single-concentration inhibitory activity against EGFR T790M L858R, Mean (100% inhibition) [4]: 36 % inhibition | inhibitory activity against EGFR L858R/T790M higher than against wild-type EGFR [4]: 18 fold | Single-concentration inhibitory activity against EGFR (T790M, C7975, L858R), Mean (100% inhibition) [5]: 8.0 % inhibition | IC50 [5]: 0.464 µM
